Here are results for three compounds from patent US12029738B2, “Antiproliferative compounds and methods of use thereof” (Celgene Corporation, priority 2017, dated 2024).

Each structure is given as a SMILES string. pIC50: −log10 of the molar value. Entries after “also recorded” stand apart in the source; their conditions may differ. A value given as a limit tells only on which side of the number the result lay.

One may read the AUC(0-t) as exposure summed from dosing to a finite time, without extrapolation to infinity. As a reminder, the pIC50 is −log10 of the IC50, conventionally taken in molar units.

Data set [1] deals with H929-1051 cells. Briefly: Cell apoptosis assay (Caspase-3 live cell imaging). It is filed as cell-based, human. An excerpt: FIG. 1A and FIG. 1B. (FIG. 1A) Change in apoptosis induction, as measured by area under the curve of Caspase 3 fold induction (aka apoptosis index) over time in lenalidomide resistant H929-1051 cells. Abscissa: log nM (compound), ordinate: apoptosis index. The lines of best fit are a 3-parameter logistic equation calculated in GraphPad Prism. (FIG. 1B) The area under the curve of the concentration-response curves for Compound 1 and Compound A in H929-1051 cells were used to compare the compounds' ability to induce apoptosis after a 6 h exposure and then dilution resulting in about a 20-fold reduction of compound concentration.
Cell Apoptosis Assays: The ability of the compounds to induce apoptosis was assessed in selected MM cell lines at the time points and compound concentrations indicated. As a marker of apoptosis, the level of Caspase-3 activity was measured in MM cells using live cell imaging. To image suspension cells, 96-well plates were coated with fibronectin so cells would adhere and lie flat on the bottom of the plate. Cells were added to 96-well plates using a Multidrop Combi Reagent Dispenser (Thermo Scientific, Waltham, MA) the night before compound addition. […] Cleavage of the Caspase-3 enzyme substrate and cellular confluence in each well was detected via imaging at 10× on the IncuCyte ZOOM System every 4-6 h for 5 days. […]
Compound 1 Induced Apoptosis in Multiple Myeloma Cell Lines. […] To determine the ability of compounds to induce apoptosis and to characterize kinetically the onset of this process, Caspase-3 induction was measured over time in lenalidomide-resistant, H929-1051 cells (FIG. 1A and FIG. 1B). H929-1051 cells were incubated with the compounds at concentrations of 1 nM, 10 nM, 100 nM and 1000 nM and apoptosis was assessed over time. […] Next, the area under the curve (AUC) was calculated for each concentration and used to generate the concentration-response curves for each compound. This provided quantitative evidence of the ability of Compound 1 to induce apoptosis in H929-1051.

The nature of data set [2]: in vivo. The note with it: male, CD-IGS, rat, po. As to the method: 7-Day Exploratory Toxicology Studies in Male Rats. Methods. Male CD-IGS rats (n=5/group for toxicologic assessment; n=4/group for toxicokinetic assessment) were dosed once daily by oral gavage (10 mL/kg) with vehicle (0.5% HPMC/0.25% Tween-80 in 50 mM citrate, pH 2.6-2.8) or test articles (Compound A or Compound 1) at 100, 300 or 1000 mg/kg/day for 7 consecutive days. Blood samples for toxicokinetics were collected on Days 1 and 7. […] Body weight was recorded at randomization, prior to dosing on Days 1-7 and prior to necropsy. Samples for hematology and serum chemistry analyses were collected on Day 8, approximately 24 h after the last dose. Rats were euthanized on Day 8 for necropsy. Anatomic pathology evaluation consisted of gross observation, organ weight and histopathologic examination of select tissues.

Data set [3] concerns H929-1051. Briefly: Coculture of compound-treated anti-CD3-activated PBMCs with untreated myeloma cells. In kind it is cell-based. To be noted: Homo sapiens, untreated H929-1051, T:E 1:5, 24 h, read-out: IC50 tumor cell lysis by compound-treated PBMCs. On the procedure: (§1) Coculture Assays with Compound-treated Human Peripheral Blood Mononuclear Cells and Untreated Myeloma Cell Lines. Methods: Cell Culture. All myeloma cell lines were kept in log phase, and cell density and viability were monitored by trypan blue exclusion using the Vi-CELL XR cell viability analyzer.
(§2) PBMC Treatment Assay Procedure. Ninety-six-well dishes were pre-coated with anti-CD3 antibody (OKT3, 3 μg/mL) and incubated at 4° C. overnight before the start of the experiment. Frozen PBMC donors, were thawed at 37° C. for 2 minutes in RPMI medium with 10% FBS and cell counts and viability were measured on the Vi-CELL® (Beckman Coulter). Peripheral blood mononuclear cells were washed and diluted to 1×10^6 cells/mL and dispensed to the compound-treated plates in a total volume of 200 μL. Cells were incubated with compounds for 2 h before being transferred onto anti-CD3-coated plates and incubated for an additional 72 h at 37° C. After 72 h, the PBMCs were centrifuged, and cells were washed twice in RPMI medium+10% FBS. […] Peripheral blood mononuclear cells were counted and added to the MM cells at a target:effector (T:E) ratio of 1:5. After 24 h co-culture, specific target cell lysis by PBMCs was measured using Annexin V-AF647 and 7-AAD according to manufacturer's instructions and samples were run on the Attune NxT Cytometer (Thermo Fisher).

Data set [4] concerns NCI-H929. Described as above. In kind it is cell-based. The note with it: Homo sapiens, T:E 1:5, 24 h, read-out: IC50 tumor cell lysis by compound-treated PBMCs. As to the method: as §1, §2
Data set [5] addresses T1, CYP1A2 (Homo sapiens, UniProt P05177).
T1 construct: from tissue; host or cells: pooled human liver microsomes
The data set is described as follows: CYP inhibition in pooled human liver microsomes. In kind it is in vitro ADME. To be noted: up to 30 μM. On the procedure: (§3) Methods. […] In addition, the compounds were evaluated for their potential to act as a time-dependent inhibitors at the same concentrations mentioned above. […] In addition to appropriate vehicle controls, known direct inhibitors and time-dependent inhibitors of CYP isoforms were included as positive controls. Following the incubation, concentrations of probe substrate metabolites were quantified using established LC/MS/MS methods. The extent of inhibition was expressed as the percentage of control activity.

For data set [6], the target named is T2, CYP2A6 (Homo sapiens, UniProt P11509).
T2 construct: from tissue; host or cells: pooled human liver microsomes
The data set is described as follows: CYP inhibition in pooled human liver microsomes. In kind it is in vitro ADME. To be noted: up to 30 μM. As to the method:
as §3
(Microsomes from liver hold many membrane-bound enzymes, among them those of drug oxidation.)

For data set [7], the target named is T3, CYP2C8 (Homo sapiens, UniProt P10632).
T3 construct: from tissue; host or cells: pooled human liver microsomes
The data set is described as follows: CYP inhibition in pooled human liver microsomes. It is filed as in vitro ADME. To be noted: up to 30 μM. On the procedure: as §3

Data set [8] has as its target T4, CYP2D6 (Homo sapiens, UniProt P10635).
T4 construct: from tissue; host or cells: pooled human liver microsomes
The data set is described as follows: CYP inhibition in pooled human liver microsomes. To be noted: up to 30 μM. In kind it is in vitro ADME. On the procedure: as §3

The mark [9] stands for this setting: 30 minute preincubation with or without NADPH.

T1 sequence (P05177 whole entry): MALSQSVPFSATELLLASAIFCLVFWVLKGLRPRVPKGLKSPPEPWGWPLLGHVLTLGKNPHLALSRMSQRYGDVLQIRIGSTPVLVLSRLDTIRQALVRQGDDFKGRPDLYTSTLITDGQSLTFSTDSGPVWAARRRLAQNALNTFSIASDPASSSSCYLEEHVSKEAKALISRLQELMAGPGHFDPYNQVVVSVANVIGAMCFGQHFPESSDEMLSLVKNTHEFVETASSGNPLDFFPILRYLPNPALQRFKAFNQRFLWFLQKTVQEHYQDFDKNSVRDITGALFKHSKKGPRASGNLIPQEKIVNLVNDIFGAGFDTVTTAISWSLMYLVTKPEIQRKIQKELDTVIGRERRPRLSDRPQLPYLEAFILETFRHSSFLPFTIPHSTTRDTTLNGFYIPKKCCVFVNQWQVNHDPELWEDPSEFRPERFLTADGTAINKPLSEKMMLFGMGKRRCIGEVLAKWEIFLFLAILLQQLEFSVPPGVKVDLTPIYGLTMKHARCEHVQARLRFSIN
T3 sequence (P10632 whole entry): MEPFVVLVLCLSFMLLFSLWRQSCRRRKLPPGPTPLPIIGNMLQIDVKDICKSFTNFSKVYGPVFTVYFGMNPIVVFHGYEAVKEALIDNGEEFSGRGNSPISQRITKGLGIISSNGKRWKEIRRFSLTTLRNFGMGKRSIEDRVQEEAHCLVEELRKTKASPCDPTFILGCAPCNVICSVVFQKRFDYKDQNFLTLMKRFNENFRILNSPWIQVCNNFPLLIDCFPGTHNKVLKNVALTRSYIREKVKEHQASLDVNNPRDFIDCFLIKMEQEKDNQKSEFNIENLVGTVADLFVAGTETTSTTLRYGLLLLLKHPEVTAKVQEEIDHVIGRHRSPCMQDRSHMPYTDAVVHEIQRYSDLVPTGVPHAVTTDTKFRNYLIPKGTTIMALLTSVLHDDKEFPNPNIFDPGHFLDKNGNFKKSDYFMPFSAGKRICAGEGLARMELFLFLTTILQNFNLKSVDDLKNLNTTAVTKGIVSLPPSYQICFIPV
T2 sequence (P11509 whole entry): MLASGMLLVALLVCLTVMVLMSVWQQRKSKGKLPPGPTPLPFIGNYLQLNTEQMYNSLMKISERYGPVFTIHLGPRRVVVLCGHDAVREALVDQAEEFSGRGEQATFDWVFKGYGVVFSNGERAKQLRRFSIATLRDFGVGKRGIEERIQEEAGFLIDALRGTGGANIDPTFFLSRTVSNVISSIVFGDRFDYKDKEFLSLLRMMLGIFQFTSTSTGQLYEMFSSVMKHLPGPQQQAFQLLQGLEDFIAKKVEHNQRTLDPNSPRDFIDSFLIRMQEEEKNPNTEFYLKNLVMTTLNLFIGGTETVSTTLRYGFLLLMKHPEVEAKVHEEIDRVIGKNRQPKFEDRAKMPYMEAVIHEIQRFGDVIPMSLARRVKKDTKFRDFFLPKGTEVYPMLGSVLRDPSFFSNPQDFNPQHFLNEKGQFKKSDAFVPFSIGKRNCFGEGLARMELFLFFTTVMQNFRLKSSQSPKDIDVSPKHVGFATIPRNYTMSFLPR
T4 sequence (P10635 whole entry): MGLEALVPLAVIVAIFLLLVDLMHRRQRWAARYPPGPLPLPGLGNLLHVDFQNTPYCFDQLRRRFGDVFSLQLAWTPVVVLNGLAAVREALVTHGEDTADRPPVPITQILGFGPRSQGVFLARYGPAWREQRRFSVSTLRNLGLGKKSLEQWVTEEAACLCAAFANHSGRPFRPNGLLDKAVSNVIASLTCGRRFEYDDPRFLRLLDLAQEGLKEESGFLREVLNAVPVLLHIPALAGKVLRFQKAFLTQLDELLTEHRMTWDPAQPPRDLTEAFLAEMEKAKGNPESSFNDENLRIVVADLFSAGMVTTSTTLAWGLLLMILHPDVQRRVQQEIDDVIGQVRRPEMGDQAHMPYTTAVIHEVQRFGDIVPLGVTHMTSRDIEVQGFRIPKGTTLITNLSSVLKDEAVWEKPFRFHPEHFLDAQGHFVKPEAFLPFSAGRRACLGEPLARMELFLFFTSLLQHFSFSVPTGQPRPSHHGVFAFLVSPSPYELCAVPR

In the case of `N#Cc1ccc(N2CCN(Cc3ccc(COc4cccc5c4CN(C4CCC(=O)NC4=O)C5=O)cc3)CC2)c(F)c1` (racemic) [Compound 1, 4-(4-(4-(((2-(2,6-dioxopiperidin-3-yl)-1-oxoisoindolin-4-yl)oxy)methyl)benzyl)piperazin-1-yl)-3-fluorobenzonitrile], the “time of near maximal apoptosis induction” value in data set [1] (1-1000 nM) is listed as ~72 h. Further, in data set [1] (1-1000 nM, all concentrations), the “time at which apoptosis induction begins” value is given as “around 48 h”. In addition, in data set [1] (6 h exposure then about 20-fold dilution, relative to Compound A), the “apoptotic induction (total AUC) compared to Compound A” value is 126%. Besides, the values for the AUC(0-t) in data set [2] (100 mg/kg/day), in data set [2] (300 mg/kg/day) and in data set [2] (1000 mg/kg/day) were 143 µM·h, 514 µM·h and 1220 µM·h, respectively. Moreover, the “dose at which minimal decreases in body weight gain were observed” value in data set [2] (7 days) is reported as ≥ 300 mg/kg.
`N#Cc1ccc(N2CCN(Cc3ccc(COc4cccc5c4CN([C@H]4CCC(=O)NC4=O)C5=O)cc3)CC2)c(F)c1` [Compound 2, (S)-4-(4-(4-(((2-(2,6-dioxopiperidin-3-yl)-1-oxoisoindolin-4-yl)oxy)methyl)benzyl)piperazin-1-yl)-3-fluorobenzonitrile]: the pIC50 in data set [3] was 9.70; in data set [4], 8.30.
Take `O=C1CC[C@H](N2Cc3c(OCc4ccc(CN5CCN(c6ccc(F)cc6F)CC5)cc4)cccc3C2=O)C(=O)N1` [Compound B]: the “time-dependent inhibition of CYP1A2” value in data set [5] (setting [9]) is reported as “little to no time-dependent inhibition; also recorded: not a time-dependent inhibitor”. Also, the “direct inhibition of CYP1A2” value in data set [5] (human liver microsomes) is reported as “up to 30%”. For the same compound, the “time-dependent inhibition of CYP2A6” value in data set [6] (setting [9]) is “little to no time-dependent inhibition; also recorded: not a time-dependent inhibitor”. For the same compound, the “direct inhibition of CYP2A6” value in data set [6] (human liver microsomes) is given as “up to 30%”. Besides, the “time-dependent inhibition of CYP2C8” value in data set [7] (setting [9]) was “little to no time-dependent inhibition; also recorded: not a time-dependent inhibitor”. In data set [7] (human liver microsomes), the “direct inhibition of CYP2C8” value is given as “up to 30%”. In data set [8] (setting [9]), the “time-dependent inhibition of CYP2D6” value is “little to no time-dependent inhibition; also recorded: not a time-dependent inhibitor”. Besides, the “direct inhibition of CYP2D6” value in data set [8] (human liver microsomes) is recorded as “up to 30%”.
